Legend:
[1] = xn = mol fraction of the nth substance listed; conditions: 101 kPa, Liquid
[2] = refractive index (Na D-line) (dimensionless); conditions: 298.15 K; 101.33 kPa; Liquid; Standard Abbe refractometry
[3] = 101 kPa, Liquid

CCCCCCCC [octane] + Cc1cc(C)cc(C)c1
[1], x1 = 1
Conditions | mass density [kg/m3]
298.15 K | 698.62
308.15 K | 690.45
318.15 K | 682.49
328.15 K | 674.54

Cc1cc(C)cc(C)c1 [1,3,5-trimethylbenzene] + CCCCCCCC
[1]
Conditions | mass density [kg/m3]
298.15 K, x2 = 0 | 861.13
298.15 K, x2 = 0.08503 | 845.14
298.15 K, x2 = 0.1479 | 833.6
298.15 K, x2 = 0.2132 | 821.88
298.15 K, x2 = 0.2717 | 811.56
298.15 K, x2 = 0.3177 | 803.61
298.15 K, x2 = 0.3864 | 791.95
298.15 K, x2 = 0.463 | 779.23
298.15 K, x2 = 0.5407 | 766.69
298.15 K, x2 = 0.6037 | 756.73
298.15 K, x2 = 0.6725 | 746.08
298.15 K, x2 = 0.723 | 738.44
298.15 K, x2 = 0.7969 | 727.45
298.15 K, x2 = 0.8623 | 717.95
298.15 K, x2 = 0.9422 | 706.63
308.15 K, x2 = 0 | 852.89
308.15 K, x2 = 0.08503 | 836.88
308.15 K, x2 = 0.1386 | 827.02
308.15 K, x2 = 0.2132 | 813.6
308.15 K, x2 = 0.2717 | 803.29
308.15 K, x2 = 0.3177 | 795.34
308.15 K, x2 = 0.3864 | 783.69
308.15 K, x2 = 0.463 | 770.99
308.15 K, x2 = 0.5407 | 758.45
308.15 K, x2 = 0.6037 | 748.49
308.15 K, x2 = 0.6725 | 737.87
308.15 K, x2 = 0.723 | 730.2
308.15 K, x2 = 0.7969 | 719.24
308.15 K, x2 = 0.8623 | 709.74
308.15 K, x2 = 0.9422 | 698.43
318.15 K, x2 = 0 | 844.78
318.15 K, x2 = 0.06984 | 831.58
318.15 K, x2 = 0.1363 | 819.34
318.15 K, x2 = 0.2001 | 807.84
318.15 K, x2 = 0.2695 | 795.59
318.15 K, x2 = 0.3464 | 782.35
318.15 K, x2 = 0.398 | 773.67
318.15 K, x2 = 0.4464 | 765.65
318.15 K, x2 = 0.536 | 751.14
318.15 K, x2 = 0.5995 | 741.12
318.15 K, x2 = 0.6643 | 731.1
318.15 K, x2 = 0.7301 | 721.16
318.15 K, x2 = 0.7839 | 713.18
318.15 K, x2 = 0.8537 | 703.03
318.15 K, x2 = 0.9507 | 689.3
328.15 K, x2 = 0 | 836.65
328.15 K, x2 = 0.06984 | 823.48
328.15 K, x2 = 0.1363 | 811.25
328.15 K, x2 = 0.2001 | 799.75
328.15 K, x2 = 0.2677 | 787.84
328.15 K, x2 = 0.3464 | 774.3
328.15 K, x2 = 0.398 | 765.62
328.15 K, x2 = 0.4622 | 755.02
328.15 K, x2 = 0.5368 | 743
328.15 K, x2 = 0.6022 | 732.7
328.15 K, x2 = 0.6552 | 724.51
328.15 K, x2 = 0.7389 | 711.86
328.15 K, x2 = 0.7839 | 705.21
328.15 K, x2 = 0.8537 | 695.07
328.15 K, x2 = 0.9507 | 681.35

CCCCCCCC [octane] + Cc1cccc(C)c1
[1], x1 = 1
Conditions | mass density [kg/m3]
298.15 K | 698.63
308.15 K | 690.43
318.15 K | 682.49
328.15 K | 674.56

Cc1ccccc1 [toluene]
Conditions | refractive index
[2] | 1.4941

[3]
Conditions | mass density [kg/m3]
298.15 K | 862.29
308.15 K | 852.86
318.15 K | 843.6
328.15 K | 834.29
